Literature values as cited in patent publication US20220370613A1, “PHARMACEUTICAL COMPOSITION” (Renown Pharma Inc., priority 2019, published 2022).

What was measured:
[1] = system: "on-off" fluctuations in Parkinson's disease; conditions: subcutaneous injection
"switched on" response = conditions: sublingual administration

In the case of `CN1CCc2cccc3c2[C@H]1Cc1ccc(O)c(O)c1-3` [apomorphine], the pKa is given as 8.9, the duration of effect [1] is given as 45 to 90 min and the time to effect [1] is given as 5 to 15 min. For the same compound, the “mean time to onset of effect” value ("switched on" response) was “approximately 30 minutes”.
